One compound from patent publication US9539262B2, “Ophthalmic composition comprising a prostaglandin” (SUN PHARMA ADVANCED RESEARCH COMPANY, LTD., priority 2007, dated 2017) can be followed below.

The series relates to New Zealand White Rabbits. Nature of the series: Ocular irritancy potential and systemic toxicity, daily repeated ocular instillation. It is filed as in vivo. The method, then:
The pharmaceutical compositions of the present invention were tested in New Zealand White Rabbits, for ocular irritancy potential and systemic toxicity. The pharmaceutical composition of the present invention and polyethylene glycol hydroxystearate (the excipient) both were tested. The test involved daily repeated ocular instillation for at least 14 days.

With `CC(C)OC(=O)CCC/C=C\C[C@@H]1[C@@H](CC[C@@H](O)CCc2ccccc2)[C@H](O)C[C@@H]1O` [latanoprost, isopropyl-(Z)-7[(1R,2R,3R,5S)3,5-dihydroxy-2-[(3R)-3-hydroxy-5-phenylpentyl]cyclopentyl]-5-heptenoate], the “gross or microscopical pathological lesion” value (at least 14 days ocular instillation) is “did not result into any gross or microscopical pathological lesion”. The “alterations in body weight, % body weight gain, terminal body weight, absolute and relative organ weights, differential cell count of bone marrow, biochemical and hematological parameters” value (at least 14 days ocular instillation, compared to the control group) is “no statistically significant alterations”. For the setting “daily repeated ocular instillation for at least 14 days, Solutol HS 15 approximately 47 times HRD, latanoprost approximately 48 times HRD”, the “clinical sign or irritation in the eyes” value was “no clinical sign or irritation in the eyes”.
